In patent US8158635B2, “Solid forms comprising 4-[9-(tetrahydro-furan-3-yl)-8-(2,4,6-trifluoro-phenylamino)-9H-purin-2-ylamino]-cyclohexan-1-ol, compositions thereof, and uses therewith” (Signal Pharmaceuticals, LLC, priority 2006, dated 2012):

Test: Moisture sorption analysis (Dynamic Vapor Sorption)
Assay type: physicochemical
Experimental: In certain embodiments, Form A of the free base of Compound I is stable during drying at temperatures up to about 40-45° C. In certain embodiments, the crystallization and/or recrystallization of Form A of the free base of Compound I provides an effective means of purification by removing or reducing the levels of chemical impurities (such as, e.g., one or more of the chemical compounds provided in FIG. 14) in the resulting material. In certain embodiments, Form A of the free base of Compound I is substantially pure. […] In certain embodiments, Form A of the free base of Compound I is stable upon compression.
Hygroscopicity (moisture sorption desorption) was determined by Dynamic Vapor Sorption (DVS). A solid sample comprising Compound I ranging from 10 to 50 mg was placed into the DVS instrument at 0% relative humidity (RH). The RH was increased from 0% to 80% or 95%. The RH was then decreased in a similar manner to accomplish a full sorption desorption cycle.

O[C@H]1CC[C@H](Nc2ncc3nc(Nc4c(F)cc(F)cc4F)n([C@H]4CCOC4)c3n2)CC1 (stereo in doubt) [Form A of the Free Base of Compound I, 4-[9-(tetrahydro-furan-3-yl)-8-(2,4,6-trifluoro-phenylamino)-9H-purin-2-ylamino]-cyclohexan-1-ol]
XRPD pattern following moisture sorption analysis (after sorption/desorption cycle): substantially unchanged | mass gain in moisture sorption analysis (increased from about 0% to about 80% RH): about 0.5% | mass gain in moisture sorption analysis (increased from about 0% to about 95% RH): about 1.4%
